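96-well plates; 48 h exposure; 5 concentrations. Endpoints by linear interpolation between flanking doses. Not reached: highest tested concentration assigned. The concentration for full growth arrest is given as TGI.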
Legend:
Test in all cases: NCI tumour cell line growth inhibition, 48 h
[1] = tested on: MOLT-4 leukemia
[2] = tested on: LXFL 529 NSCLC
[3] = tested on: LOX IMVI melanoma
[4] = tested on: CAKI-1 renal
[5] = tested on: SR leukemia
[6] = tested on: U251 CNS
[7] = tested on: HOP-62 NSCLC
[8] = tested on: HT29 colon
[9] = tested on: SNB-78 CNS
[10] = tested on: 786-0 renal
[11] = tested on: EKVX NSCLC
[12] = tested on: HCT-15 colon
[13] = tested on: OVCAR-3 ovarian
[14] = tested on: DMS 273 small cell lung
[15] = tested on: M19-MEL melanoma
[16] = tested on: A549 NSCLC
[17] = tested on: IGROV1 ovarian
[18] = tested on: K-562 leukemia
[19] = tested on: SK-OV-3 ovarian
[20] = tested on: NCI-H226 lung
[21] = tested on: DLD-1 colon
[22] = tested on: NCI-H460 lung
[23] = tested on: SN12C renal
[24] = tested on: SK-MEL-2 melanoma
[25] = tested on: RXF-631 renal
[26] = tested on: KM12 colon
[27] = tested on: COLO 205 colon
[28] = tested on: TK-10 renal
[29] = tested on: SNB-75 CNS
[30] = tested on: KM20L2 colon
[31] = tested on: SF-268 CNS
[32] = tested on: HCT-116 colon
[33] = tested on: SW-620 colon
[34] = tested on: OVCAR-4 ovarian
[35] = tested on: UACC-257 melanoma
[36] = tested on: DMS 114 small cell lung
[37] = tested on: HOP-92 NSCLC
[38] = tested on: SNB-19 CNS
[39] = tested on: M14 melanoma
[40] = tested on: UACC-62 melanoma
[41] = tested on: HCC-2998 colon
[42] = tested on: HOP-18 NSCLC
[43] = tested on: SK-MEL-28 melanoma
[44] = tested on: NCI-H522 lung
[45] = tested on: MALME-3M melanoma
[46] = tested on: CCRF-CEM leukemia
[47] = tested on: RPMI-8226 leukemia
[48] = tested on: OVCAR-8 ovarian
[49] = tested on: SF-539 CNS
[50] = tested on: RXF 393 renal
[51] = tested on: SK-MEL-5 melanoma
[52] = tested on: NCI-H23 lung
[53] = tested on: UO-31 renal
[54] = tested on: SF-295 CNS
[55] = tested on: HL-60(TB) leukemia
[56] = tested on: ACHN renal
[57] = tested on: A498 renal
[58] = tested on: OVCAR-5 ovarian

Structure (SMILES): Cc1ccc(C(=O)/C=C/c2cccc([N+](=O)[O-])c2)cc1
- TGI [1]: 7.39 µM
- TGI [2]: > 100 µM
- TGI [3]: > 100 µM
- TGI [4]: > 100 µM
- TGI [5]: 51.1 µM
- TGI [6]: > 55.5 µM
- TGI [7]: > 100 µM
- TGI [8]: > 66.1 µM
- TGI [9]: > 100 µM
- TGI [10]: > 62.9 µM
- TGI [11]: > 100 µM
- TGI [12]: > 64 µM
- TGI [13]: > 100 µM
- TGI [14]: > 100 µM
- TGI [15]: > 62.3 µM
- TGI [16]: > 100 µM
- TGI [17]: > 100 µM
- TGI [18]: 66.5 µM
- TGI [19]: > 100 µM
- TGI [20]: > 100 µM
- TGI [21]: > 85.8 µM
- TGI [22]: > 100 µM
- TGI [23]: > 100 µM
- TGI [24]: > 100 µM
- TGI [25]: > 100 µM
- TGI [26]: > 62.1 µM
- TGI [27]: > 55.9 µM
- TGI [28]: > 100 µM
- TGI [29]: > 92.9 µM
- TGI [30]: > 100 µM
- TGI [31]: > 100 µM
- TGI [32]: 31.8 µM
- TGI [33]: 43.7 µM
- TGI [34]: > 100 µM
- TGI [35]: > 100 µM
- TGI [36]: > 80.9 µM
- TGI [37]: > 100 µM
- TGI [38]: > 100 µM
- TGI [39]: > 100 µM
- TGI [40]: > 100 µM
- TGI [41]: > 92 µM
- TGI [42]: > 100 µM
- TGI [43]: > 100 µM
- TGI [44]: > 100 µM
- TGI [45]: > 100 µM
- TGI [46]: > 89.9 µM
- TGI [47]: > 78.8 µM
- TGI [48]: > 100 µM
- TGI [49]: > 100 µM
- TGI [50]: > 74.8 µM
- TGI [51]: > 100 µM
- TGI [52]: > 100 µM
- TGI [53]: > 100 µM
- TGI [54]: > 100 µM
- TGI [55]: > 85.8 µM
- TGI [56]: > 100 µM
- TGI [57]: > 100 µM

Structure (SMILES): CC(C)(C)c1ccc(OCCOCCOc2ccc(C(C)(C)C)cc2S(=O)(=O)Nc2ccc([N+](=O)[O-])cc2)c(S(=O)(=O)Nc2ccc([N+](=O)[O-])cc2)c1
- TGI [1]: 43.9 µM
- TGI [3]: > 100 µM
- TGI [4]: > 100 µM
- TGI [6]: > 100 µM
- TGI [7]: > 100 µM
- TGI [8]: > 100 µM
- TGI [9]: > 100 µM
- TGI [10]: > 100 µM
- TGI [11]: > 100 µM
- TGI [12]: > 100 µM
- TGI [13]: > 100 µM
- TGI [14]: > 100 µM
- TGI [15]: > 100 µM
- TGI [16]: > 100 µM
- TGI [17]: > 100 µM
- TGI [18]: > 100 µM
- TGI [19]: > 100 µM
- TGI [20]: > 100 µM
- TGI [21]: > 100 µM
- TGI [22]: > 100 µM
- TGI [23]: > 100 µM
- TGI [24]: > 100 µM
- TGI [25]: > 100 µM
- TGI [26]: > 100 µM
- TGI [27]: > 100 µM
- TGI [28]: > 100 µM
- TGI [29]: > 100 µM
- TGI [58]: > 100 µM
- TGI [31]: > 100 µM
- TGI [32]: > 100 µM
- TGI [33]: > 100 µM
- TGI [34]: > 100 µM
- TGI [35]: > 100 µM
- TGI [36]: > 100 µM
- TGI [37]: 72.3 µM
- TGI [38]: > 100 µM
- TGI [39]: > 100 µM
- TGI [40]: > 100 µM
- TGI [41]: > 100 µM
- TGI [42]: > 100 µM
- TGI [43]: > 100 µM
- TGI [45]: > 100 µM
- TGI [46]: > 100 µM
- TGI [48]: > 100 µM
- TGI [49]: > 100 µM
- TGI [50]: > 100 µM
- TGI [51]: > 100 µM
- TGI [52]: > 100 µM
- TGI [53]: > 100 µM
- TGI [54]: > 100 µM
- TGI [55]: > 100 µM
- TGI [56]: > 100 µM
- TGI [57]: 90.9 µM

— PubChem BioAssay (NCI)
